Legend:
Assay in all cases: relative viability (nuclei count vs DMSO), 5 days (fraction); higher = more cells survive
[1] = tested on: 201T
Summary of the method: (§1)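 Lung cancer cell lines in 1536-well plates were dosed by pin tool the day after seeding, either with one drug alone or with a fixed anchor-drug dose plus five library-drug doses (not always all listed) in √10 steps. After 5 days, cells were fixed and their nuclei stained in one step (final 0.05% Triton X-100, 1% formaldehyde, 1 ug/ml Hoechst), then counted on 4× images. Relative viability is the nuclei count in treated wells divided by that in vehicle wells. Values are medians of duplicate plates.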

[2] = tested on: BEN
Summary of the method: as §1

[3] = tested on: COR-L 105
Summary of the method: as §1

[4] = tested on: COR-L23
Summary of the method: as §1

[5] = tested on: EKVX
Summary of the method: as §1

[6] = tested on: HARA
Summary of the method: as §1

[7] = tested on: HCC-15
Summary of the method: as §1

[8] = tested on: HCC-827
Summary of the method: as §1

[9] = tested on: LC-2-ad
Summary of the method: as §1

[10] = tested on: LU99A
Summary of the method: as §1

[11] = tested on: LXF-289
Summary of the method: as §1

[12] = tested on: NCI-H1650
Summary of the method: as §1

[13] = tested on: NCI-H1734
Summary of the method: as §1

[14] = tested on: NCI-H1755
Summary of the method: as §1

[15] = tested on: NCI-H1944
Summary of the method: as §1

[16] = tested on: NCI-H1975
Summary of the method: as §1

[17] = tested on: NCI-H1993
Summary of the method: as §1

[18] = tested on: NCI-H3122
Summary of the method: as §1

[19] = tested on: NCI-H596
Summary of the method: as §1

[20] = tested on: RERF-LC-KJ
Summary of the method: as §1

[21] = tested on: SK-LU-1
Summary of the method: as §1

Question: `O=C(O)CCCCC(CCSCc1ccccc1)SCc1ccccc1` (centres undefined) [CPI-613] + CCNC(=O)c1noc(-c2cc(C(C)C)c(O)cc2O)c1-c1ccc(CN2CCOCC2)cc1 [Luminespib] (partner 0.01 µM) was tested. Which relative viability ([1]; first compound 5 µM) did it give?
Answer: The relative viability was 1.05.

Question: What about the relative viability ([1]; first compound 15.81 µM) of the same compound?
Answer: The relative viability was 0.973.

Question: What about the relative viability ([1]; first compound 50 µM) of the same compound?
Answer: The relative viability was 1.01.

Question: What about the relative viability ([1]; first compound 158.11 µM) of the same compound?
Answer: Its relative viability is 0.258.

Question: What about the relative viability ([1]; first compound 500 µM) of the same compound?
Answer: Its relative viability is 0.0468.

Question: And the relative viability ([2]; first compound 5 µM)?
Answer: The relative viability was 0.619.

Question: And the relative viability ([2]; first compound 15.81 µM)?
Answer: The relative viability was 0.362.

Question: And the relative viability ([2]; first compound 50 µM)?
Answer: The relative viability was 0.484.

Question: And the relative viability ([2]; first compound 158.11 µM)?
Answer: The relative viability was 0.292.

Question: What about the relative viability ([2]; first compound 500 µM) of the same compound?
Answer: Its relative viability is 0.149.

Question: And the relative viability ([3]; first compound 5 µM)?
Answer: Its relative viability is 0.749.

Question: And the relative viability ([3]; first compound 15.81 µM)?
Answer: The relative viability was 0.727.

Question: What about the relative viability ([3]; first compound 50 µM) of the same compound?
Answer: Its relative viability is 0.692.

Question: What about the relative viability ([3]; first compound 158.11 µM) of the same compound?
Answer: Its relative viability is 0.421.

Question: And the relative viability ([3]; first compound 500 µM)?
Answer: The relative viability was 0.127.

Question: What about the relative viability ([4]; first compound 5 µM) of the same compound?
Answer: Its relative viability is 0.58.

Question: And the relative viability ([4]; first compound 15.81 µM)?
Answer: Its relative viability is 0.61.

Question: What about the relative viability ([4]; first compound 50 µM) of the same compound?
Answer: The relative viability was 0.664.

Question: And the relative viability ([4]; first compound 158.11 µM)?
Answer: The relative viability was 0.108.

Question: And the relative viability ([4]; first compound 500 µM)?
Answer: The relative viability was 0.0308.

Question: And the relative viability ([5]; first compound 5 µM)?
Answer: The relative viability was 0.834.

Question: And the relative viability ([5]; first compound 15.81 µM)?
Answer: Its relative viability is 0.881.

Question: And the relative viability ([5]; first compound 50 µM)?
Answer: The relative viability was 0.864.

Question: What about the relative viability ([5]; first compound 158.11 µM) of the same compound?
Answer: Its relative viability is 0.814.

Question: What about the relative viability ([5]; first compound 500 µM) of the same compound?
Answer: Its relative viability is 0.803.

Question: What about the relative viability ([6]; first compound 15.81 µM) of the same compound?
Answer: The relative viability was 0.635.

Question: And the relative viability ([6]; first compound 50 µM)?
Answer: The relative viability was 0.757.

Question: And the relative viability ([6]; first compound 158.11 µM)?
Answer: Its relative viability is 0.297.

Question: What about the relative viability ([6]; first compound 500 µM) of the same compound?
Answer: The relative viability was 0.0024.

Question: And the relative viability ([7]; first compound 5 µM)?
Answer: Its relative viability is 0.297.

Question: And the relative viability ([7]; first compound 15.81 µM)?
Answer: The relative viability was 0.424.

Question: What about the relative viability ([7]; first compound 50 µM) of the same compound?
Answer: The relative viability was 0.304.

Question: What about the relative viability ([7]; first compound 158.11 µM) of the same compound?
Answer: Its relative viability is 0.0775.

Question: What about the relative viability ([7]; first compound 500 µM) of the same compound?
Answer: Its relative viability is 0.0498.

Question: What about the relative viability ([8]; first compound 5 µM) of the same compound?
Answer: The relative viability was 0.416.

Question: What about the relative viability ([8]; first compound 15.81 µM) of the same compound?
Answer: The relative viability was 0.615.

Question: And the relative viability ([8]; first compound 50 µM)?
Answer: The relative viability was 0.774.

Question: And the relative viability ([8]; first compound 158.11 µM)?
Answer: The relative viability was 0.633.

Question: What about the relative viability ([8]; first compound 500 µM) of the same compound?
Answer: Its relative viability is 0.329.

Question: What about the relative viability ([9]; first compound 5 µM) of the same compound?
Answer: Its relative viability is 1.02.

Question: What about the relative viability ([9]; first compound 15.81 µM) of the same compound?
Answer: The relative viability was 0.958.

Question: What about the relative viability ([9]; first compound 50 µM) of the same compound?
Answer: The relative viability was 0.847.

Question: And the relative viability ([9]; first compound 158.11 µM)?
Answer: The relative viability was 0.235.

Question: What about the relative viability ([9]; first compound 500 µM) of the same compound?
Answer: The relative viability was 0.0688.

Question: And the relative viability ([10]; first compound 5 µM)?
Answer: Its relative viability is 0.296.

Question: What about the relative viability ([10]; first compound 15.81 µM) of the same compound?
Answer: The relative viability was 0.222.

Question: And the relative viability ([10]; first compound 50 µM)?
Answer: The relative viability was 0.243.

Question: And the relative viability ([10]; first compound 158.11 µM)?
Answer: The relative viability was 0.159.

Question: What about the relative viability ([10]; first compound 500 µM) of the same compound?
Answer: The relative viability was 0.115.

Question: What about the relative viability ([11]; first compound 5 µM) of the same compound?
Answer: The relative viability was 0.611.

Question: And the relative viability ([11]; first compound 15.81 µM)?
Answer: The relative viability was 0.535.

Question: And the relative viability ([11]; first compound 50 µM)?
Answer: Its relative viability is 0.657.

Question: And the relative viability ([11]; first compound 158.11 µM)?
Answer: The relative viability was 0.206.

Question: And the relative viability ([11]; first compound 500 µM)?
Answer: Its relative viability is 0.0484.

Question: And the relative viability ([12]; first compound 5 µM)?
Answer: Its relative viability is 0.213.

Question: What about the relative viability ([12]; first compound 15.81 µM) of the same compound?
Answer: The relative viability was 0.224.

Question: What about the relative viability ([12]; first compound 50 µM) of the same compound?
Answer: Its relative viability is 0.194.

Question: What about the relative viability ([12]; first compound 158.11 µM) of the same compound?
Answer: The relative viability was 0.168.

Question: And the relative viability ([12]; first compound 500 µM)?
Answer: Its relative viability is 0.0166.

Question: What about the relative viability ([13]; first compound 5 µM) of the same compound?
Answer: The relative viability was 0.197.

Question: And the relative viability ([13]; first compound 15.81 µM)?
Answer: Its relative viability is 0.194.

Question: What about the relative viability ([13]; first compound 50 µM) of the same compound?
Answer: The relative viability was 0.164.

Question: What about the relative viability ([13]; first compound 158.11 µM) of the same compound?
Answer: Its relative viability is 0.165.

Question: And the relative viability ([13]; first compound 500 µM)?
Answer: Its relative viability is 0.107.

Question: What about the relative viability ([14]; first compound 5 µM) of the same compound?
Answer: Its relative viability is 0.613.

Question: What about the relative viability ([14]; first compound 15.81 µM) of the same compound?
Answer: The relative viability was 0.508.

Question: And the relative viability ([14]; first compound 50 µM)?
Answer: The relative viability was 0.24.

Question: And the relative viability ([14]; first compound 158.11 µM)?
Answer: The relative viability was 0.34.

Question: What about the relative viability ([14]; first compound 500 µM) of the same compound?
Answer: The relative viability was 0.185.

Question: What about the relative viability ([15]; first compound 5 µM) of the same compound?
Answer: The relative viability was 0.748.

Question: And the relative viability ([15]; first compound 15.81 µM)?
Answer: Its relative viability is 0.701.

Question: What about the relative viability ([15]; first compound 50 µM) of the same compound?
Answer: The relative viability was 0.757.

Question: What about the relative viability ([15]; first compound 158.11 µM) of the same compound?
Answer: Its relative viability is 0.409.

Question: What about the relative viability ([15]; first compound 500 µM) of the same compound?
Answer: Its relative viability is 0.0599.

Question: And the relative viability ([16]; first compound 5 µM)?
Answer: Its relative viability is 0.173.

Question: And the relative viability ([16]; first compound 15.81 µM)?
Answer: Its relative viability is 0.171.

Question: What about the relative viability ([16]; first compound 50 µM) of the same compound?
Answer: The relative viability was 0.194.

Question: What about the relative viability ([16]; first compound 158.11 µM) of the same compound?
Answer: Its relative viability is 0.141.

Question: And the relative viability ([16]; first compound 500 µM)?
Answer: The relative viability was 0.28.

Question: What about the relative viability ([17]; first compound 5 µM) of the same compound?
Answer: Its relative viability is 0.799.

Question: What about the relative viability ([17]; first compound 15.81 µM) of the same compound?
Answer: The relative viability was 0.296.

Question: And the relative viability ([17]; first compound 50 µM)?
Answer: Its relative viability is 0.917.

Question: And the relative viability ([17]; first compound 158.11 µM)?
Answer: The relative viability was 0.611.

Question: And the relative viability ([17]; first compound 500 µM)?
Answer: The relative viability was 0.437.

Question: And the relative viability ([18]; first compound 5 µM)?
Answer: The relative viability was 0.0787.

Question: What about the relative viability ([18]; first compound 15.81 µM) of the same compound?
Answer: Its relative viability is 0.088.

Question: What about the relative viability ([18]; first compound 50 µM) of the same compound?
Answer: The relative viability was 0.0889.

Question: And the relative viability ([18]; first compound 158.11 µM)?
Answer: The relative viability was 0.0798.

Question: What about the relative viability ([18]; first compound 500 µM) of the same compound?
Answer: The relative viability was 0.0712.

Question: And the relative viability ([19]; first compound 5 µM)?
Answer: Its relative viability is 0.954.

Question: What about the relative viability ([19]; first compound 15.81 µM) of the same compound?
Answer: Its relative viability is 0.955.

Question: What about the relative viability ([19]; first compound 50 µM) of the same compound?
Answer: The relative viability was 1.12.

Question: And the relative viability ([19]; first compound 158.11 µM)?
Answer: The relative viability was 0.168.

Question: And the relative viability ([19]; first compound 500 µM)?
Answer: The relative viability was 0.0176.

Question: And the relative viability ([20]; first compound 5 µM)?
Answer: Its relative viability is 1.28.

Question: And the relative viability ([20]; first compound 15.81 µM)?
Answer: Its relative viability is 1.22.

Question: And the relative viability ([20]; first compound 50 µM)?
Answer: The relative viability was 1.23.

Question: What about the relative viability ([20]; first compound 158.11 µM) of the same compound?
Answer: Its relative viability is 0.235.

Question: And the relative viability ([20]; first compound 500 µM)?
Answer: Its relative viability is 0.198.

Question: What about the relative viability ([21]; first compound 5 µM) of the same compound?
Answer: Its relative viability is 0.205.

Question: What about the relative viability ([21]; first compound 15.81 µM) of the same compound?
Answer: The relative viability was 0.2.

Question: What about the relative viability ([21]; first compound 50 µM) of the same compound?
Answer: The relative viability was 0.198.

Question: What about the relative viability ([21]; first compound 158.11 µM) of the same compound?
Answer: The relative viability was 0.128.

Question: And the relative viability ([21]; first compound 500 µM)?
Answer: The relative viability was 0.101.

From the supplement of paper PMC10307832
